Measurements published in patent publication US20130303532A1, “IMIDAZOPYRAZINES FOR USE AS MPS-1 AND TKK INHIBITORS IN THE TREATMENT HYPERPROLIFERATIVE DISORDERS” (BAYER INTELLECTUAL PROPERTY GmbH, priority 2010, published 2013).
Read-outs that look alike come from different tables or passages of the source.

Target: T1, human kinase Mps-1 (Homo sapiens, UniProt P33981)
T1 construct: N-terminally GST-tagged human full length recombinant Mps-1 kinase; GST (N); purchased Invitrogen, Karslruhe, Germany PV4071
T1 sequence (P33981 1-857): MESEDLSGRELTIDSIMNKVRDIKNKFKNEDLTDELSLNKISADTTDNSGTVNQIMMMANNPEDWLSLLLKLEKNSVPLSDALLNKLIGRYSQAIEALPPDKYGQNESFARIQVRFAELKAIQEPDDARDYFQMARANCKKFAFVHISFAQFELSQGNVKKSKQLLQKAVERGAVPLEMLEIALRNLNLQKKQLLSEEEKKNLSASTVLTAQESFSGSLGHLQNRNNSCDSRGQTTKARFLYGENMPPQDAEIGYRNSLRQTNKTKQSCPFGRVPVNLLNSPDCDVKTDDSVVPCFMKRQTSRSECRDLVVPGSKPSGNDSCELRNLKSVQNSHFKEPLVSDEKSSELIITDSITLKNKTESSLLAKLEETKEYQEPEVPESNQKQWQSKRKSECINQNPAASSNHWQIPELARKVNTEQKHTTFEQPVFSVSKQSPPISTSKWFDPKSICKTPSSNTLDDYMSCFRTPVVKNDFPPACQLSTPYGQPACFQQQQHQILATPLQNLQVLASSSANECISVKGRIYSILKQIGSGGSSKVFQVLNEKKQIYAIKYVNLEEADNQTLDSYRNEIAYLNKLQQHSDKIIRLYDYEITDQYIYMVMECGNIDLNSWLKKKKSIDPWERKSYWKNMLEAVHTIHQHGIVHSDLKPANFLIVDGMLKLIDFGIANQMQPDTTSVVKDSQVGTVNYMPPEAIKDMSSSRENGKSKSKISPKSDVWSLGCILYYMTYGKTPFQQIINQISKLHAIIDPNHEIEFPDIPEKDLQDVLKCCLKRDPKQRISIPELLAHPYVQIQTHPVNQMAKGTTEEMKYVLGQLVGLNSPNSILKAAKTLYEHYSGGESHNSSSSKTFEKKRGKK
Test: Mps-1 kinase assay (TR-FRET)
Assay type: biochemical
Conditions: N-terminally GST-tagged human full length recombinant Mps-1, 10 μM ATP, 1 μM biotinylated peptide substrate, 60 min at 22° C.

Row | IC50 (read-out: Mps1 IC50) | Compound | IC50 (Mps1 IC50 [nM])
1 | – | COc1ccccc1CNc1nccn2c(-c3ccc(C(=O)NC4CC4)cc3)cnc12 [Example 4-8, N-cyclopropyl-4-{8-[(2-methoxybenzyl)amino]imi-dazo[1,2-a]pyrazin-3-yl}benzamide] | 85.5 nM
2 | 278 nM | Cc1cc(-c2cnc3c(NCCCS(C)(=O)=O)nccn23)ccc1C(=O)NC1CC1 [Example 5-1, N-cyclopropyl-2-methyl-4-(8-{[3-(methylsulfonyl)propyl]amino}imidazo[1,2-a]pyrazin-3-yl)benzamide] | –
3 | – | Cc1cc(-c2cnc3c(NCc4ccccc4O)nccn23)ccc1C(=O)NC1CC1 [Example 5-2, N-cyclopropyl-4-{8-[(2-hydroxybenzyl)amino]imi-dazo[1,2-a]pyrazin-3-yl}-2-methylbenzamide] | 24.4 nM
4 | – | Cc1cc(-c2cnc3c(NCc4ccn[nH]4)nccn23)ccc1C(=O)NC1CC1 [Example 5-3, N-cyclopropyl-2-methyl-4-{8-[(1H-pyrazol-5-ylmethyl)amino]imi-dazo[1,2-a]pyrazin-3-yl}benzamide] | 86.7 nM
5 | – | Cc1cc(-c2cnc3c(NCc4ccccc4Cl)nccn23)ccc1C(=O)NC1CC1 [Example 5-4, 4-{8-[(2-chlorobenzyl)amino]imi-dazo[1,2-a]pyrazin-3-yl}-N-cyclopropyl-2-methylbenzamide] | 18.8 nM
6 | – | Cc1cc(-c2cnc3c(NCc4ccnn4C)nccn23)ccc1C(=O)NC1CC1 [Example 5-5, N-cyclopropyl-2-methyl-4-(8-{[(1-methyl-1H-pyrazol-5-yl)methyl]amino}imi-dazo[1,2-a]pyrazin-3-yl)benzamide] | 67 nM
7 | 22.5 nM | CCCCCNc1nccn2c(-c3ccc(C(=O)NC4CC4)cc3)cnc12 [Example 7-1, N-cyclopropyl-4-[8-(pentylamino)imidazo[1,2-a]pyrazin-3-yl]benzamide] | –
8 | – | COCCNc1nccn2c(-c3ccc(C(=O)NC4CC4)cc3)cnc12 [Example 7-2, N-cyclopropyl-4-{8-[(2-methoxyethyl)amino]imi-dazo[1,2-a]pyrazin-3-yl}benzamide] | 272 nM
9 | – | COCCCNc1nccn2c(-c3ccc(C(=O)NC4CC4)cc3)cnc12 [Example 7-3, N-cyclopropyl-4-{8-[(3-methoxypropyl)amino]imi-dazo[1,2-a]pyrazin-3-yl}benzamide] | 95.8 nM
10 | 341 nM | O=C(NC1CC1)c1ccc(-c2cnc3c(NCCN4CCOCC4)nccn23)cc1 [Example 7-4, N-cyclopropyl-4-(8-{[2-(morpholin-4-yl)ethyl]amino}imidazo[1,2-a]pyrazin-3-yl)benzamide] | –
11 | – | O=C(NC1CC1)c1ccc(-c2cnc3c(NCCCN4CCOCC4)nccn23)cc1 [Example 7-5, N-cyclopropyl-4-(8-{[3-(morpholin-4-yl)propyl]amino}imi-dazo[1,2-a]pyrazin-3-yl)benzamide] | 328 nM
12 | 1260 nM | CN(C)CCCNc1nccn2c(-c3ccc(C(=O)NC4CC4)cc3)cnc12 [Example 7-6, N-cyclopropyl-4-(8-{[3-(dimethylamino)propyl]ami-nono}imidazo[1,2-a]pyrazin-3-yl)benzamide] | –
13 | 4050 nM | CN(C)CCNc1nccn2c(-c3ccc(C(=O)NC4CC4)cc3)cnc12 [Example 7-7, N-cyclopropyl-4-(8-{[2-(dimethylamino)ethyl]ami-no}imidazo[1,2-a]pyrazin-3-yl)benzamide] | –
14 | 1950 nM | O=C(NC1CC1)c1ccc(-c2cnc3c(NCCN4CCCCC4)nccn23)cc1 [Example 7-8, N-cyclopropyl-4-(8-{[2-(piperidin-1-yl)ethyl]amino}imidazo[1,2-a]pyrazin-3-yl)benzamide] | –
15 | – | O=C(NC1CC1)c1ccc(-c2cnc3c(NCCc4ccccc4)nccn23)cc1 [Example 7-9, N-cyclopropyl-4-{8-[(2-phenylethyl)amino]imi-dazo[1,2-a]pyrazin-3-yl}benzamide] | 47.7 nM
16 | 115 nM | CCNc1nccn2c(-c3ccc(C(=O)NC4CC4)cc3)cnc12 [Example 7-10, N-cyclopropyl-4-[8-(ethylamino)imidazo[1,2-a]pyrazin-3-yl]benzamide] | –
17 | – | COc1cc(CNc2nccn3c(-c4ccc(C(=O)NC5CC5)cc4)cnc23)cc(OC)c1OC [Example 7-13, N-cyclopropyl-4-{8-[(3,4,5-trimethoxybenzyl)amino]imi-dazo[1,2-a]pyrazin-3-yl}benzamide] | 429 nM

Row | IC50 (read-out: Mps1 IC50) | Compound | IC50 (Mps1 IC50 [nM])
18 | – | Cc1ccccc1CNc1nccn2c(-c3ccc(C(=O)NC4CC4)cc3)cnc12 [Example 7-15, N-cyclopropyl-4-{8-[(2-methylbenzyl)amino]imi-dazo[1,2-a]pyrazin-3-yl}benzamide] | 88.8 nM
19 | 961 nM | CC(=O)NCCNc1nccn2c(-c3ccc(C(=O)NC4CC4)cc3)cnc12 [Example 7-16, 4-(8-{[2-(acetylamino)ethyl]ami-no}imidazo[1,2-a]pyrazin-3-yl)-N-cyclopropylbenzamide] | –
20 | – | O=C(NC1CC1)c1ccc(-c2cnc3c(NCC(O)COc4ccccc4)nccn23)cc1 (stereo not shown) [Example 7-17, N-cyclopropyl-4-{8-[(2-hydroxy-3-phenoxypropyl)amino]imi-dazo[1,2-a]pyrazin-3-yl}benzamide] | 412 nM
21 | 28.4 nM | O=C(NC1CC1)c1ccc(-c2cnc3c(NCc4ccc5c(c4)OCO5)nccn23)cc1 [Example 7-18, 4-{8-[(1,3-benzodioxol-5-ylmethyl)amino]imidazo[1,2-a]pyrazin-3-yl}-N-cyclopropylbenzamide] | –
22 | – | CC(C)(C)CNc1nccn2c(-c3ccc(C(=O)NC4CC4)cc3)cnc12 [Example 7-20, N-cyclopropyl-4-{8-[(2,2-dimethylpropyl)amino]imi-dazo[1,2-a]pyrazin-3-yl}benzamide] | 30.2 nM
23 | 42.3 nM | O=C(NC1CC1)c1ccc(-c2cnc3c(NCCc4cccs4)nccn23)cc1 [Example 7-21, N-cyclopropyl-4-(8-{[2-(thiophen-2-yl)ethyl]ami-no}imidazo[1,2-a]pyrazin-3-yl)benzamide] | –
24 | – | Cc1ccc(CNc2nccn3c(-c4ccc(C(=O)NC5CC5)cc4)cnc23)cc1 [Example 7-22, N-cyclopropyl-4-{8-[(4-methylbenzyl)amino]imi-dazo[1,2-a]pyrazin-3-yl}benzamide] | 21 nM
25 | 244 nM | O=C(NC1CC1)c1ccc(-c2cnc3c(NCCc4cccnc4)nccn23)cc1 [Example 7-23, N-cyclopropyl-4-(8-{[2-(pyridin-3-yl)ethyl]amino}imidazo[1,2-a]pyrazin-3-yl)benzamide] | –
26 | – | O=C(NC1CC1)c1ccc(-c2cnc3c(NCCCc4ccccc4)nccn23)cc1 [Example 7-24, N-cyclopropyl-4-{8-[(3-phenylpropyl)amino]imi-dazo[1,2-a]pyrazin-3-yl}benzamide] | 90.1 nM
27 | 97.6 nM | NS(=O)(=O)c1ccc(CCNc2nccn3c(-c4ccc(C(=O)NC5CC5)cc4)cnc23)cc1 [Example 7-27, N-cyclopropyl-4-(8-{[2-(4-sulfamoylphenyl)ethyl]ami-no}imidazo[1,2-a]pyrazin-3-yl)benzamide] | –
28 | – | O=C(NC1CC1)c1ccc(-c2cnc3c(NCCCN4CCCC4=O)nccn23)cc1 [Example 7-28, N-cyclopropyl-4-(8-{[3-(2-oxopyrrolidin-1-yl)propyl]amino}imi-dazo[1,2-a]pyrazin-3-yl)benzamide] | 1270 nM
29 | – | Cc1cccc(CNc2nccn3c(-c4ccc(C(=O)NC5CC5)cc4)cnc23)c1 [Example 7-29, N-cyclopropyl-4-{8-[(3-methylbenzyl)amino]imi-dazo[1,2-a]pyrazin-3-yl}benzamide] | 100 nM
30 | – | O=C(NC1CC1)c1ccc(-c2cnc3c(NCc4ccc(F)cc4)nccn23)cc1 [Example 7-31, N-cyclopropyl-4-{8-[(4-fluorobenzyl)amino]imi-dazo[1,2-a]pyrazin-3-yl}benzamide] | 17.4 nM
31 | – | NS(=O)(=O)CCNc1nccn2c(-c3ccc(C(=O)NC4CC4)cc3)cnc12 [Example 7-32, N-cyclopropyl-4-{8-[(2-sulfamoylethyl)amino]imi-dazo[1,2-a]pyrazin-3-yl}benzamide] | 57.2 nM
32 | – | O=C(NC1CC1)c1ccc(-c2cnc3c(NCc4cccc(F)c4)nccn23)cc1Cl [Example 7-33, 2-chloro-N-cyclopropyl-4-{8-[(3-fluorobenzyl)amino]imi-dazo[1,2-a]pyrazin-3-yl}benzamide] | 200 nM
33 | 211 nM | O=C(NC1CC1)c1ccc(-c2cnc3c(NCC4CCCO4)nccn23)cc1Cl (stereo not shown) [Example 7-34, 2-chloro-N-cyclopropyl-4-{8-[(tetrahydrofuran-2-ylmethyl)amino]imidazo[1,2-a]pyrazin-3-yl}benzamide] | –

Row | Compound | IC50 (read-out: Mps1 IC50) | IC50 (Mps1 IC50 [nM])
34 | CC(C)CNc1nccn2c(-c3ccc(C(=O)NC4CC4)c(Cl)c3)cnc12 [Example 6-1, 2-chloro-N-cyclopropyl-4-{8-[(2-methylpropyl)amino]imidazo[1,2-a]pyrazin-3-yl}benzamide] | 28 nM | –
